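Five compound concentrations were applied to cells in 96-well plates for 48 hours; endpoints were derived by simple linear interpolation of the resulting dose-response curve. GI50 marks 50% less growth. At the TGI there is no net growth.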
Tests used:
Assay in all cases: NCI tumour cell line growth inhibition, 48 h
HT29 colon = tested on: HT29 colon
BT-549 breast = tested on: BT-549 breast
U251 CNS = tested on: U251 CNS
T-47D breast = tested on: T-47D breast
A549 NSCLC = tested on: A549 NSCLC
OVCAR-8 ovarian = tested on: OVCAR-8 ovarian
MCF7 breast = tested on: MCF7 breast
NCI/ADR-RES ovarian = tested on: NCI/ADR-RES ovarian
OVCAR-4 ovarian = tested on: OVCAR-4 ovarian
786-0 renal = tested on: 786-0 renal
OVCAR-5 ovarian = tested on: OVCAR-5 ovarian
TK-10 renal = tested on: TK-10 renal
SNB-19 CNS = tested on: SNB-19 CNS
CCRF-CEM leukemia = tested on: CCRF-CEM leukemia
MDA-MB-231 breast = tested on: MDA-MB-231 breast
COLO 205 colon = tested on: COLO 205 colon
UO-31 renal = tested on: UO-31 renal
HOP-92 NSCLC = tested on: HOP-92 NSCLC
OVCAR-3 ovarian = tested on: OVCAR-3 ovarian
LOX IMVI melanoma = tested on: LOX IMVI melanoma
KM12 colon = tested on: KM12 colon
IGROV1 ovarian = tested on: IGROV1 ovarian
SF-268 CNS = tested on: SF-268 CNS
ACHN renal = tested on: ACHN renal
SN12C renal = tested on: SN12C renal
SF-295 CNS = tested on: SF-295 CNS
CAKI-1 renal = tested on: CAKI-1 renal
SK-MEL-28 melanoma = tested on: SK-MEL-28 melanoma
SW-620 colon = tested on: SW-620 colon
SK-MEL-2 melanoma = tested on: SK-MEL-2 melanoma
HOP-62 NSCLC = tested on: HOP-62 NSCLC
NCI-H226 lung = tested on: NCI-H226 lung
UACC-257 melanoma = tested on: UACC-257 melanoma
A498 renal = tested on: A498 renal
HCC-2998 colon = tested on: HCC-2998 colon
SK-OV-3 ovarian = tested on: SK-OV-3 ovarian
UACC-62 melanoma = tested on: UACC-62 melanoma
HCT-116 colon = tested on: HCT-116 colon
RXF 393 renal = tested on: RXF 393 renal
SF-539 CNS = tested on: SF-539 CNS
MALME-3M melanoma = tested on: MALME-3M melanoma
PC-3 prostate = tested on: PC-3 prostate
K-562 leukemia = tested on: K-562 leukemia
SNB-75 CNS = tested on: SNB-75 CNS
DU-145 prostate = tested on: DU-145 prostate
MDA-MB-435 = tested on: MDA-MB-435
NCI-H460 lung = tested on: NCI-H460 lung
SK-MEL-5 melanoma = tested on: SK-MEL-5 melanoma
HCT-15 colon = tested on: HCT-15 colon
MOLT-4 leukemia = tested on: MOLT-4 leukemia
RPMI-8226 leukemia = tested on: RPMI-8226 leukemia
M14 melanoma = tested on: M14 melanoma
SR leukemia = tested on: SR leukemia
NCI-H522 lung = tested on: NCI-H522 lung
MDA-MB-468 breast = tested on: MDA-MB-468 breast
HS 578T breast = tested on: HS 578T breast

COc1cc(OC)c(S(=O)(=O)N(CCCl)CCCl)cc1C(=O)/C=C/c1cc(OC)c(OC)c(OC)c1
GI50 (HT29 colon): 2.34 µM | TGI (HT29 colon): 5.92 µM | GI50 (BT-549 breast): 1.37 µM | TGI (BT-549 breast): 2.92 µM | GI50 (U251 CNS): 1.78 µM | TGI (U251 CNS): 3.68 µM | GI50 (T-47D breast): 3.53 µM | TGI (T-47D breast): > 100 µM | GI50 (A549 NSCLC): 3.11 µM | TGI (A549 NSCLC): > 100 µM | GI50 (OVCAR-8 ovarian): 4.06 µM | TGI (OVCAR-8 ovarian): > 100 µM | GI50 (MCF7 breast): 1.01 µM | TGI (MCF7 breast): 4.36 µM | GI50 (NCI/ADR-RES ovarian): 2.58 µM | TGI (NCI/ADR-RES ovarian): > 100 µM | GI50 (OVCAR-4 ovarian): 2.78 µM | TGI (OVCAR-4 ovarian): > 100 µM | GI50 (786-0 renal): 1.95 µM | TGI (786-0 renal): 5.66 µM | GI50 (OVCAR-5 ovarian): 2.51 µM | TGI (OVCAR-5 ovarian): 6.8 µM | GI50 (TK-10 renal): 6.09 µM | TGI (TK-10 renal): 75 µM | GI50 (SNB-19 CNS): 2.37 µM | TGI (SNB-19 CNS): 5.71 µM | GI50 (CCRF-CEM leukemia): 1.69 µM | TGI (CCRF-CEM leukemia): > 100 µM | GI50 (MDA-MB-231 breast): 3.95 µM | TGI (MDA-MB-231 breast): > 100 µM | GI50 (COLO 205 colon): 2.37 µM | TGI (COLO 205 colon): 4.46 µM | GI50 (UO-31 renal): 1.54 µM | TGI (UO-31 renal): 2.92 µM | GI50 (HOP-92 NSCLC): > 100 µM | TGI (HOP-92 NSCLC): > 100 µM | GI50 (OVCAR-3 ovarian): 2.12 µM | TGI (OVCAR-3 ovarian): 6.62 µM | GI50 (LOX IMVI melanoma): 1.44 µM | TGI (LOX IMVI melanoma): 2.89 µM | GI50 (KM12 colon): 1.93 µM | TGI (KM12 colon): 4.26 µM | GI50 (IGROV1 ovarian): 3.09 µM | TGI (IGROV1 ovarian): 9.05 µM | GI50 (SF-268 CNS): 2.62 µM | TGI (SF-268 CNS): 7.7 µM | GI50 (ACHN renal): 2.08 µM | TGI (ACHN renal): 6.16 µM | GI50 (SN12C renal): 2.26 µM | TGI (SN12C renal): 13 µM | GI50 (SF-295 CNS): 2.86 µM | TGI (SF-295 CNS): 35.4 µM | GI50 (CAKI-1 renal): 2.72 µM | TGI (CAKI-1 renal): > 100 µM | GI50 (SK-MEL-28 melanoma): 1.82 µM | TGI (SK-MEL-28 melanoma): 3.54 µM | GI50 (SW-620 colon): 2.69 µM | TGI (SW-620 colon): 25.1 µM | GI50 (SK-MEL-2 melanoma): 2.06 µM | TGI (SK-MEL-2 melanoma): 4.65 µM | GI50 (HOP-62 NSCLC): 3.77 µM | TGI (HOP-62 NSCLC): 22.8 µM | GI50 (NCI-H226 lung): 2.61 µM | TGI (NCI-H226 lung): 8.95 µM | GI50 (UACC-257 melanoma): 1.66 µM | TGI (UACC-257 melanoma): 3.89 µM | GI50 (A498 renal): 2.79 µM | TGI (A498 renal): 7.23 µM | GI50 (HCC-2998 colon): 1.97 µM | TGI (HCC-2998 colon): 3.54 µM | GI50 (SK-OV-3 ovarian): 3.47 µM | TGI (SK-OV-3 ovarian): 13 µM | GI50 (UACC-62 melanoma): 2.1 µM | TGI (UACC-62 melanoma): 4.94 µM | GI50 (HCT-116 colon): 1.23 µM | TGI (HCT-116 colon): 2.82 µM | GI50 (RXF 393 renal): 1.24 µM | TGI (RXF 393 renal): 2.83 µM | GI50 (SF-539 CNS): 1.73 µM | TGI (SF-539 CNS): 3.61 µM | GI50 (MALME-3M melanoma): 2.48 µM | TGI (MALME-3M melanoma): 7.18 µM | GI50 (PC-3 prostate): 3.85 µM | TGI (PC-3 prostate): > 100 µM | GI50 (K-562 leukemia): 1.3 µM | TGI (K-562 leukemia): > 100 µM | GI50 (SNB-75 CNS): 2.56 µM | TGI (SNB-75 CNS): 8.53 µM | GI50 (DU-145 prostate): 2.71 µM | TGI (DU-145 prostate): 14.8 µM | GI50 (MDA-MB-435): 2.53 µM | TGI (MDA-MB-435): 7.51 µM | GI50 (NCI-H460 lung): 1.95 µM | TGI (NCI-H460 lung): 5.08 µM | GI50 (SK-MEL-5 melanoma): 1.84 µM | TGI (SK-MEL-5 melanoma): 3.64 µM | GI50 (HCT-15 colon): 1.12 µM | TGI (HCT-15 colon): 3.98 µM | GI50 (MOLT-4 leukemia): 2.04 µM | TGI (MOLT-4 leukemia): > 100 µM | GI50 (RPMI-8226 leukemia): 2.52 µM | TGI (RPMI-8226 leukemia): > 100 µM | GI50 (M14 melanoma): 2.09 µM | TGI (M14 melanoma): 5.45 µM | GI50 (SR leukemia): 0.993 µM | TGI (SR leukemia): > 100 µM | GI50 (NCI-H522 lung): 1.66 µM | TGI (NCI-H522 lung): 3.78 µM | GI50 (MDA-MB-468 breast): 1.52 µM | TGI (MDA-MB-468 breast): 3.66 µM | GI50 (HS 578T breast): 8.55 µM | TGI (HS 578T breast): > 100 µM
